Test results as given in publication PMC4561207 (Child's nervous system : ChNS : official journal of the …, 2015).

Experiment: Toxicities attributed to Cediranib
Format: in vivo, human

COc1cc2c(Oc3ccc4[nH]c(C)cc4c3F)ncnc2cc1OCCCN1CCCC1 [cediranib, Cediranib]
diarrhea, number of patients (all grades): Thirty-two
Abdominal pain, events (patients) (grade 1 TOX): 5(5)
Acidosis, events (patients) (grade 1 TOX): 1(1)
Alanine aminotransferase increased, events (patients) (grade 1 TOX): 41(22)
Alkaline phosphatase increased, events (patients) (grade 1 TOX): 2(2)
Anal mucositis, events (patients) (grade 1 TOX): 1(1)
Anal pain, events (patients) (grade 1 TOX): 1(1)
Anemia, events (patients) (grade 1 TOX): 2(2)
Anorexia, events (patients) (grade 1 TOX): 8(8)
Aspartate aminotransferase increased, events (patients) (grade 1 TOX): 37(19)
Back pain, events (patients) (grade 1 TOX): 1(1)
Blood bilirubin increased, events (patients) (grade 1 TOX): 13(7)
Bone pain, events (patients) (grade 1 TOX): 1(1)
Cardiac troponin I increased, events (patients) (grade 1 TOX): 1(1)
Cholesterol high, events (patients) (grade 1 TOX): 1(1)
Chronic kidney disease, events (patients) (grade 1 TOX): 1(1)
Constipation, events (patients) (grade 1 TOX): 5(2)
Cough, events (patients) (grade 1 TOX): 1(1)
Creatinine increased, events (patients) (grade 1 TOX): 1(1)
Dehydration, events (patients) (grade 1 TOX): 1(1)
Depression, events (patients) (grade 1 TOX): 1(1)
Diarrhea, events (patients) (grade 1 TOX): 43(30)
Dizziness, events (patients) (grade 1 TOX): 3(3)
Dry mouth, events (patients) (grade 1 TOX): 1(1)
Dry skin, events (patients) (grade 1 TOX): 1(1)
Dyspepsia, events (patients) (grade 1 TOX): 3(3)
Edema face, events (patients) (grade 1 TOX): 1(1)
Edema limbs, events (patients) (grade 1 TOX): 1(1)
Endocrine disorders - Other, specify, events (patients) (grade 1 TOX): 1(1)
Epistaxis, events (patients) (grade 1 TOX): 5(4)
Fatigue, events (patients) (grade 1 TOX): 7(7)
Fecal incontinence, events (patients) (grade 1 TOX): 1(1)
Fever, events (patients) (grade 1 TOX): 1(1)
GGT increased, events (patients) (grade 1 TOX): 1(1)
Gastritis, events (patients) (grade 1 TOX): 1(1)
Gastrointestinal disorders - Other, specify, events (patients) (grade 1 TOX): 1(1)
Headache, events (patients) (grade 1 TOX): 5(4)
Hematuria, events (patients) (grade 1 TOX): 5(3)
Hemoglobin increased, events (patients) (grade 1 TOX): 6(2)
Hoarseness, events (patients) (grade 1 TOX): 1(1)
Hypercalcemia, events (patients) (grade 1 TOX): 3(2)
Hyperglycemia, events (patients) (grade 1 TOX): 7(6)
Hyperkalemia, events (patients) (grade 1 TOX): 2(2)
Hypermagnesemia, events (patients) (grade 1 TOX): 7(5)
Hypernatremia, events (patients) (grade 1 TOX): 5(4)
Hypertension, events (patients) (grade 1 TOX): 19(13)
Hyperthyroidism, events (patients) (grade 1 TOX): 2(2)
Hypoalbuminemia, events (patients) (grade 1 TOX): 20(13)
Hypocalcemia, events (patients) (grade 1 TOX): 16(8)
Hypoglycemia, events (patients) (grade 1 TOX): 2(2)
Hypokalemia, events (patients) (grade 1 TOX): 14(11)
Hypomagnesemia, events (patients) (grade 1 TOX): 6(4)
Hyponatremia, events (patients) (grade 1 TOX): 9(5)
Hypophosphatemia, events (patients) (grade 1 TOX): 10(8)
Hypothyroidism, events (patients) (grade 1 TOX): 10(10)
INR increased, events (patients) (grade 1 TOX): 1(1)
Investigations - Other, specify, events (patients) (grade 1 TOX): 2(2)
Joint effusion, events (patients) (grade 1 TOX): 1(1)
Leukoencephalopathy, events (patients) (grade 1 TOX): 1(1)
Lymphocyte count decreased, events (patients) (grade 1 TOX): 11(8)
Malaise, events (patients) (grade 1 TOX): 2(1)
Mucositis oral, events (patients) (grade 1 TOX): 1(1)
Myalgia, events (patients) (grade 1 TOX): 1(1)
Nausea, events (patients) (grade 1 TOX): 15(10)
Neutrophil count decreased, events (patients) (grade 1 TOX): 11(8)
Non-cardiac chest pain, events (patients) (grade 1 TOX): 1(1)
Oral pain, events (patients) (grade 1 TOX): 2(2)
Pain in extremity, events (patients) (grade 1 TOX): 3(3)
Palmar-plantar erythrodysesthesia syndrome, events (patients) (grade 1 TOX): 4(4)
Platelet count decreased, events (patients) (grade 1 TOX): 22(17)
Proteinuria, events (patients) (grade 1 TOX): 20(13)
Rash acneiform, events (patients) (grade 1 TOX): 2(2)
Rash maculo-papular, events (patients) (grade 1 TOX): 5(5)
Rectal pain, events (patients) (grade 1 TOX): 1(1)
Renal and urinary disorders - Other, specify, events (patients) (grade 1 TOX): 1(1)
Serum amylase increased, events (patients) (grade 1 TOX): 1(1)
Skin and subcutaneous tissue disorders - Other, specify, events (patients) (grade 1 TOX): 1(1)
Stomach pain, events (patients) (grade 1 TOX): 2(2)
Urinary frequency, events (patients) (grade 1 TOX): 1(1)
Urinary retention, events (patients) (grade 1 TOX): 1(1)
Vascular disorders - Other, specify, events (patients) (grade 1 TOX): 2(2)
Voice alteration, events (patients) (grade 1 TOX): 2(2)
Vomiting, events (patients) (grade 1 TOX): 23(12)
Weight loss, events (patients) (grade 1 TOX): 1(1)
White blood cell decreased, events (patients) (grade 1 TOX): 13(11)
Abdominal pain, events (patients) (grade 2 TOX): 5(5)
Alanine aminotransferase increased, events (patients) (grade 2 TOX): 17(9)
Anorexia, events (patients) (grade 2 TOX): 5(5)
Arthralgia, events (patients) (grade 2 TOX): 1(1)
Aspartate aminotransferase increased, events (patients) (grade 2 TOX): 4(4)
Back pain, events (patients) (grade 2 TOX): 1(1)
Bone pain, events (patients) (grade 2 TOX): 1(1)
Constipation, events (patients) (grade 2 TOX): 1(1)
Dehydration, events (patients) (grade 2 TOX): 1(1)
Diarrhea, events (patients) (grade 2 TOX): 16(11)
Dizziness, events (patients) (grade 2 TOX): 2(1)
Fatigue, events (patients) (grade 2 TOX): 9(9)
Flushing, events (patients) (grade 2 TOX): 3(1)
Gastrointestinal disorders - Other, specify, events (patients) (grade 2 TOX): 1(1)
Headache, events (patients) (grade 2 TOX): 3(3)
Hyperglycemia, events (patients) (grade 2 TOX): 2(2)
Hypertension, events (patients) (grade 2 TOX): 28(28)
Hypoalbuminemia, events (patients) (grade 2 TOX): 6(4)
Hypocalcemia, events (patients) (grade 2 TOX): 1(1)
Hypoglycemia, events (patients) (grade 2 TOX): 1(1)
Hypomagnesemia, events (patients) (grade 2 TOX): 1(1)
Hypophosphatemia, events (patients) (grade 2 TOX): 4(2)
Hypothyroidism, events (patients) (grade 2 TOX): 10(10)
Hypoxia, events (patients) (grade 2 TOX): 1(1)
Intracranial hemorrhage, events (patients) (grade 2 TOX): 4(4)
Lipase increased, events (patients) (grade 2 TOX): 1(1)
Lymphocyte count decreased, events (patients) (grade 2 TOX): 7(5)
Mucositis oral, events (patients) (grade 2 TOX): 2(2)
Myalgia, events (patients) (grade 2 TOX): 1(1)
Nausea, events (patients) (grade 2 TOX): 3(3)
Neutrophil count decreased, events (patients) (grade 2 TOX): 7(4)
Pain in extremity, events (patients) (grade 2 TOX): 1(1)
Pain, events (patients) (grade 2 TOX): 1(1)
Palmar-plantar erythrodysesthesia syndrome, events (patients) (grade 2 TOX): 10(7)
Pericardial effusion, events (patients) (grade 2 TOX): 1(1)
Peripheral motor neuropathy, events (patients) (grade 2 TOX): 1(1)
Platelet count decreased, events (patients) (grade 2 TOX): 3(3)
Pleural effusion, events (patients) (grade 2 TOX): 1(1)
Proteinuria, events (patients) (grade 2 TOX): 13(12)
Respiratory, thoracic and mediastinal disorders - Other, specify, events (patients) (grade 2 TOX): 1(1)
Reversible posterior leukoencephalopathy syndrome, events (patients) (grade 2 TOX): 1(1)
Seizure, events (patients) (grade 2 TOX): 1(1)
Skin ulceration, events (patients) (grade 2 TOX): 1(1)
Vomiting, events (patients) (grade 2 TOX): 3(3)
Weight loss, events (patients) (grade 2 TOX): 1(1)
White blood cell decreased, events (patients) (grade 2 TOX): 4(2)
Alanine aminotransferase increased, events (patients) (grade 3 TOX): 6(5)
Anemia, events (patients) (grade 3 TOX): 1(1)
Aspartate aminotransferase increased, events (patients) (grade 3 TOX): 1(1)
Blurred vision, events (patients) (grade 3 TOX): 1(1)
Capillary leak syndrome, events (patients) (grade 3 TOX): 1(1)
Chest wall pain, events (patients) (grade 3 TOX): 1(1)
Confusion, events (patients) (grade 3 TOX): 1(1)
Dehydration, events (patients) (grade 3 TOX): 2(2)
Depressed level of consciousness, events (patients) (grade 3 TOX): 1(1)
Diarrhea, events (patients) (grade 3 TOX): 2(2)
Dysphasia, events (patients) (grade 3 TOX): 1(1)
Enterocolitis, events (patients) (grade 3 TOX): 1(1)
